Consider eight compounds from the supplement of paper PMC4862054.

Settings in all cases: incubation time: 72 h
The subject of one assay is CAL-120. The assay is described as follows: normalised viability (% of control), CellTiter-Blue; higher = more viable cells (100 = DMSO, 0 = benzethonium chloride kill control). How it is done:
(§1)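 DSRT, CellTiter-Blue viability, 72 h incubation. Signal is normalised to DMSO and benzethonium chloride controls. Value is the normalised response at dose 1.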
(Alamar Blue is a resazurin reagent that responds to reducing activity.)

Another assay relates to HCC1143. Described as above. As to the method: as §1
For another assay, the system named is HCC1937. The assay is described as above. How it is done:
as §1

Assay [1] deals with CAL-85-1. Described as above. As to the method:
as §1

For another assay, the system named is MFM-223. The assay is described as above. How it is done: as §1
A further assay concerns BT-474. The assay is described as above. As to the method: as §1
The subject of another assay is SK-BR-3. The description is as above. How it is done:
as §1

Assay [2] concerns CAL-148. The assay is described as above. As to the method:
as §1

The test system of assay [3] is HDQ-P1. The assay is described as above. How it is done:
as §1

For another assay, the system named is Hs578T. The assay is described as above. How it is done:
as §1

For assay [4], the system named is DU-4475. The description is as above. How it is done:
as §1

The next assay relates to MDA-MB-468. The assay is described as above. As to the method: as §1
For assay [5], the system named is MDA-MB-453. The description is as above. How it is done: as §1
Assay [6] deals with CAL-51. Described as above. As to the method:
as §1

Another assay deals with MDA-MB-231. The description is as above. How it is done: as §1
In another assay the test system is MDA-MB-436. The description is as above. How it is done:
as §1

The next assay has as its system BT-549. The description is as above. How it is done:
as §1

The subject of a further assay is HCC1599. The assay is described as above. How it is done: as §1
For assay [7], the system named is CAL-85-1. The assay is described as follows: normalised viability (% of control), CellTiter-Blue; higher = more viable cells (about 100 = DMSO control). As to the method:
(§2)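 DSRT, CellTiter-Blue viability, 72 h incubation. Signal is normalised to DMSO and benzethonium chloride controls. Value is the normalised response at dose 9.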

The test system of assay [8] is CAL-148. The assay is described as above. As to the method: as §2
The subject of assay [9] is HDQ-P1. The description is as above. As to the method: as §2
The test system of assay [10] is DU-4475. The assay is described as above. As to the method: as §2
Assay [11] has as its system MDA-MB-453. Described as above. As to the method:
as §2

In assay [12] the test system is CAL-51. The assay is described as above. As to the method: as §2

Regarding `CCN(CCCOc1ccc2c(Nc3cc(CC(=O)Nc4cccc(F)c4)[nH]n3)ncnc2c1)CCOP(=O)(O)O` [Barasertib] (0.1 nM), the normalised viability came to 95.5% in the assay on CAL-120; 107% in the assay on HCC1143; 104% in the assay on HCC1937; 105% in the assay with CAL-85-1 [1]; 102% in the assay with MFM-223; 109% in the assay on BT-474. For the same compound, the normalised viability was found to be 108% with SK-BR-3; 105% in the assay on CAL-148 [2]; 96.5% in the assay with HDQ-P1 [3]; 135% in the assay on Hs578T; 123% in the assay on DU-4475 [4]; 112% in the assay with MDA-MB-468. For the same compound, the normalised viability in the assay with MDA-MB-453 [5] stood at 93.3%; in the assay on CAL-51 [6] it was 95.4%; in the assay with MDA-MB-231, 113%; in the assay with MDA-MB-436 it was 118%; with BT-549 it was 103%; with HCC1599, 105%.

As for `NCC(=O)CCC(=O)O` [Aminolevulinic acid] (10000 nM), the normalised viability in the assay with CAL-85-1 [7] stood at 76.9%; in the assay with CAL-148 [8], 104%; in the assay on HDQ-P1 [9], 106%; in the assay on DU-4475 [10], 111%; in the assay on MDA-MB-453 [11] it was 87.7%; with CAL-51 [12], 83.2%.

Turning to `CCN(CCCOc1ccc2c(Nc3cc(CC(=O)Nc4cccc(F)c4)[nH]n3)ncnc2c1)CCOP(=O)(O)O` [Barasertib] (1000 nM), the normalised viability in the assay on CAL-85-1 [7] is 81.2%; with CAL-148 [8] it was 26.3%; with HDQ-P1 [9], 96.2%; in the assay on DU-4475 [10] it was 40.8%; in the assay with MDA-MB-453 [11], 44.1%; in the assay on CAL-51 [12] it was 42%.

`CC(=O)Nc1ccc(C(=O)Nc2ccccc2N)cc1` [CI-994] (0.1 nM): the normalised viability came out at 110% in the assay on CAL-120; 105% with HCC1143; 102% in the assay on HCC1937; 98.3% in the assay on CAL-85-1 [1]; 105% in the assay with MFM-223; 86.4% with BT-474. For the same compound, the normalised viability in the assay with SK-BR-3 worked out at 95.5%; in the assay with CAL-148 [2], 100%; with HDQ-P1 [3], 107%; in the assay with Hs578T, 117%; in the assay on DU-4475 [4], 93.2%; with MDA-MB-468 it was 98.9%. For the same compound, the normalised viability in the assay on MDA-MB-453 [5] is 101%; in the assay with CAL-51 [6], 89.6%; with MDA-MB-231, 91.9%; with MDA-MB-436, 91.2%; in the assay with BT-549, 92.6%; in the assay on HCC1599, 92.6%.

Consider `NC(=O)Nc1cc(-c2cccc(F)c2)sc1C(=O)N[C@H]1CCCNC1` [AZD 7762] (1000 nM), for which the normalised viability was 22.8% with CAL-85-1 [7]; 21.4% in the assay with CAL-148 [8]; 18% with HDQ-P1 [9]; 0.66% in the assay on DU-4475 [10]; 19.6% in the assay on MDA-MB-453 [11]; 8.63% in the assay with CAL-51 [12].

In the case of `C[C@@H](Oc1cc(-c2cnn(C3CCNCC3)c2)cnc1N)c1c(Cl)ccc(F)c1Cl` [Crizotinib] (10000 nM), the normalised viability was 39.5% with CAL-85-1 [7]; 48.6% in the assay on CAL-148 [8]; 39.6% in the assay on HDQ-P1 [9]; 11.7% in the assay with DU-4475 [10]; 24.9% in the assay on MDA-MB-453 [11]; 31.2% in the assay on CAL-51 [12].

Take `Cc1ccc(C(=O)N(CCCN)[C@@H](c2oc3cc(Cl)ccc3c(=O)c2Cc2ccccc2)C(C)C)cc1` (1000 nM): the normalised viability with CAL-85-1 [7] is 32.5%; with CAL-148 [8], 17.6%; with HDQ-P1 [9], 72.4%; with DU-4475 [10], 7.45%; with MDA-MB-453 [11] it was 24.6%; in the assay on CAL-51 [12], 18.8%.

`C[C@]12CC[C@@H]3c4ccc(O)cc4C[C@@H](CCCCCCCCC[S+]([O-])CCCC(F)(F)C(F)(F)F)[C@H]3[C@@H]1CC[C@@H]2O` (some centres not stated) [Fulvestrant] (10000 nM): the normalised viability in the assay on CAL-85-1 [7] stood at 99.3%; with CAL-148 [8], 102%; in the assay on HDQ-P1 [9], 113%; in the assay on DU-4475 [10] it was 115%; in the assay with MDA-MB-453 [11] it was 66.8%; in the assay on CAL-51 [12] it was 101%.
